By ED50 is commonly meant the midpoint of the dose-response relation. Broadly, the inhibition is the relative decrease from the control value, in per cent.

The values that follow come from patent US4075341A, “2-Substituted phenyl-5-triazols [5,1-a] isoquinoline compounds” (Gruppo Lepetit S.p.A., priority 1975, dated 1978).

Common to all, as to assay type: in vivo
The test system of test [1] is female Syrian golden hamsters. Put plainly: anti-fertility activity in pregnant female Syrian golden hamsters. Details: key to anti-fertility activity (active according to criteria): active: a reduction of live fetuses in at least 60% of the treated animals and the presence of implantation sites proves the animal to have been pregnant. Conditions: for anti-fertility activity (active according to criteria): 10 mg./kg. s.c. daily for 5 days, days 4-8 of pregnancy, autopsy day 14; for ED50: Mesocricetus auratus, sc, Table I, 5,6-dihydro compounds, hamsters, read-out: ED50 (dose showing 100% effectiveness in 50% of the treated animals). The protocol:
Representative experiments for assessing anti-fertility activity are carried out with female Syrian golden hamsters weighing 100 to 130 g. The animals are mated and the presence of sperm in the vagina is taken as evidence of mating. The day sperm is detected is considered day one of pregnancy, since in our laboratories and those of other investigators 90 to 100% of animals that mate as evidenced by vaginal sperm are pregnant. Pregnancy is later confirmed at the time of autopsy by presence of fetuses or implantation sites in the uterus. Even if an animal aborts the fetus, implantation scars still remain as evidence that the animal had been pregnant. Test compounds dissolved or suspended in sesame oil are administered subcutaneously in doses of 10 mg./kg. daily for 5 days beginning on day 4 of pregnancy (days 4-8). The animals are autopsied on day 14 of pregnancy and the uteri are examined for evidence of pregnancy (implantation sites, fetal resorptions or live fetuses), hemorrage, and evidence of abnormalities of the uterus, placenta or fetuses. A compound is considered to be active if there is a reduction of live fetuses in at least 60% of the treated animals and the presence of implantation sites proves the animal to have been pregnant. […] The compounds are then studied for dose-activity relationship and toxicity or other biological activities. Compounds that show 100% effectiveness (absence of live fetuses in 100% of animals) with minimal side effects or toxicity are studied in depth.
The ED50 values identify the dose levels which show 100% effectiveness (defined as above) in 50% of the treated animals.

A further test relates to female beagle dogs. Put plainly: anti-fertility activity in pregnant female beagle dogs. As to conditions: Canis lupus familiaris, sc; single subcutaneous dose on 20th day of pregnancy, opened on 35th day; read-out: Minimal effective doses (100% effectiveness, absence of live fetuses in 100% of the animals). An excerpt:
In performing experiments with dogs, female beagle dogs weighing approximately 10 kg. are mated and on the 20th day of pregnancy the animals are given single subcutaneous doses of the compounds that were active in both the rat and the hamster. On the 35th day of pregnancy, the animals are surgically opened and the uteri are examined for presence of fetuses, placental tissue etc. Following Table III reports the minimal doses of representative compounds showing a 100% effectiveness (absence of live fetuses in 100% of the animals).

The test system of test [2] is carrageenin induced edema. The experiment in a line: carrageenin test in rats (anti-inflammatory activity). Conditions: Rattus norvegicus, po. An excerpt: The anti-inflammatory activity of some inventive compounds was evidenced by means of the carrageenin test in rats.

As to `CCCOc1cccc(-c2nc3n(n2)CCc2ccccc2-3)c1` [Example 14, 2-(m-propoxyphenyl)-5,6-dihydro-s-triazolo[5,1-a]isoquinoline], in test [1], the “anti-fertility activity (active according to criteria)” value is “active” and the 50% effective dose (ED50) came to 0.11 mg/kg. In addition, in the test with female beagle dogs, the minimal effective dose was found to be 6.25 mg/kg.

Turning to `C=CCOc1cccc(-c2nc3n(n2)CCc2ccccc2-3)c1` [Example 24, 2-(m-allyloxyphenyl)-5,6-dihydro-s-triazolo[5,1-a]isoquinoline], in test [1], the “anti-fertility activity (active according to criteria)” value is “active” and the ED50 came out at 0.18 mg/kg. For the same compound, the minimal effective dose in the test on female beagle dogs came out at 6.25 mg/kg.

As for `Sc1nc2n(n1)CCc1ccccc1-2` [Example 38, 2-Sulfhydryl-5,6-dihydro-s-triazolo[5,1-a]isoquinoline], the inhibition at 50 mg/kg in test [2] (50 mg./kg. p.o.) was roughly 35%.

Compound `NC(=O)Nc1nc2n(n1)CCc1ccccc1-2` [Example 54, 2-Ureido-5,6-dihydro-s-triazolo[5,1-a]isoquinoline] showed an inhibition at 100 mg/kg in test [2] (100 mg./kg. p.o.) of roughly 35%.
